# Test results reported in US5652097A, “In vitro test to evaluate the inhibition potency of angiotensin II antagonists on angiotensinogen” (priority 1994, dated 1997).
# Legend:
# [1] = test system: expression of pOGH (ANG N-1498/+18) fusion gene in Hep G-2 cells; assay: Transient gene transfection assay of pOGH (ANG N-1498/+18) in Hep G-2 cells, IR-hGH by RIA; type: cell-based, human; details: AII 10^-9 mol/L; for inhibition of the stimulatory effect of AII on expression of pOGH (ANG N-1498/+18): antagonist 10^-5 mol/L
# Protocol: Plasmids or fusion genes were transfected into Hep G-2 cells utilizing calcium phosphate endocytosis as described previously (Ming M. et al., Am. J. Hypertens., 1993, 6:141-148). It was previously shown that optimal dose of DNA for gene transfection in mouse hepatoma (Hepa 1-6) cells is 20 μg of supercoiled DNA per 0.5-1×10^6 cells (Ming M. et al., Am. J. Hypertens., 1993, 6:141-148). Similar results were obtained in Hep G-2 cells. Thus, in present studies, a total of 20 μg DNA was routinely used in the cell transfection.
# To study the effect of AII in the presence or absence of various AII antagonists on the expression of fusion gene in transient gene transfection assays, cells were incubated in DMEM without FBS, 10^-9 mol/L AII with or without 10^-5 mol/L AII antagonist were added on day 1 after DNA transfection. The media or cells were harvested on day 2 for assay of IR-hGH or CAT enzymatic activity, respectively.
# In order to normalize the efficiency of transfection of pOGH (ANG N-1498/+18), 1 μg of pRSVCAT (a vector with the Rous Sarcoma Virus enhancer/promoter sequence fused to the 5'-end of the CAT coding sequence) was cotransfected with the pOGH (ANG N-1498/+18) (20 μg DNA). The results of pOGH (ANG N-1498/+18) were normalized to the efficiency of transfection of pRSVCAT. The levels of transfection efficiency for pOGH (ANG N-1498/+18) in human hepatoma cells was 25+12% as compared to pRSVCAT.
# Results are expressed as the percentage of the control (without addition of AII antagonist, 100%), mean ±S.D. AII (10^-9 mol/L) stimulated the expression of the ANG-GH fusion gene by 1.4-fold (p<0.01) as compared to the control (absence of AII) in Hep G-2 cells. In the presence of Lorsatan™ (10^-5 mol/L) or Saralasin™ (10^-5 mol/L), the stimulatory effect of AII was inhibited.
# (§1) The radioimmunoassay kit for hGH (RIA-hGH) was a gift from NIADDK, NIH, USA. The double antibody RIA procedure was similar to that previously used for the radioimmunoassay of ovine placental lactogen (Chan JSD et al., Endocrinology, 1978, 102:1606-1613). NIAMDD-hGH-1 (AFP-4793 B) was used for both iodination and as a hormone standard.
# [2] = test system: expression of pOGH (ANG N-1498/+18) in Hep G-TW7 cells stimulated by AII; assay: Inhibition of AII-stimulated expression of pOGH (ANG N-1498/+18) in Hep G-TW7 cells, IR-hGH by RIA; type: cell-based, human; details: AII 10^-9 mol/L, 24 hours; for effect on the stimulatory effect of AII on expression of pOGH (ANG N-1498/+18): various concentrations of test substance
# Protocol: Hep G-TW7 cells were plated at a density of 1-2×10^5 cells/well in a. 6-well plate and incubated overnight in DMEM containing 1% depleted FBS (dFBS). Then cell growth was arrested by incubation in serum-free medium for 24 hours. Subsequently, various concentrations (10^-9 to 10^-5 mol/L) of Lorsatan™, Saralasin™ and CGP 42112A™ were added to the culture medium containing 1% dFBS in the presence of 10^-9 mol/L AII and incubated for 24 hours. At the end of the incubation period, media were collected and kept at -20° C. until assay.
# Cells were incubated for up to 24 hours in the presence of AII (10-9mol/L) and various concentrations of Lorsatan™ (10^-9 to 10^-5 mol/L) or Saralasin™ (10^-9 to 10^-5 mol/L) or CGP 42112A™ (10^-9 to 10^-5 mol/L). Media harvested and assayed for the level of IR-hGH.
# Hep G-TW7 cells were plated at a density of 1-2×10^5 cells/well in a 6-well plate and incubated overnight in DMEM containing 1% dFBS. Then cells growth was arrested by incubation in serum-free medium for 24 hours. […] At the end of the incubation period, media were collected and kept at -20° C. until assay.
# Media were harvested and assayed for the level of IR-hGH.
# The radioimmunoassay kit for hGH (RIA-hGH) was a gift from NIADDK, NIH, USA. […] NIAMDD-hGH-1 (AFP-4793 B) was used for both iodination and as a hormone standard.
# [3] = test system: expression of pOCAT (ANG N-1498/+18) in hepatoma cells; assay: Transient gene transfection of pOCAT (ANG N-1498/+18) in the presence of hGH, CAT assay; type: cell-based, human; details: hGH as high as 4.5 mmol/L
# Text: The method for the CAT assay has been described previously (Ming M. et al., Am. J. Hypertens., 1993, 6:141-148). The results of all CAT assays are given as a mean+S.D. in triplicates.
# In accordance with the present invention, the plasmid pOGH (ANG N-1498/+18) was employed to study the effect of AII (FIGS. 2 to 6). Since receptors for hGH are presented in Hep G-2 cells, this raised the possibility that the hGH secreted into the medium may have a stimulatory effect on the expression of the ANG gene. Thus, in order to investigate this possibility, transient gene transfection experiments were performed by employing pOCAT (ANG N-1498/+18) (Ming M. et al., Am. J. Hypertens., 1993, 6:141-148), in the presence of hGH. […] The use of plasmid pOGH (ANG N-1498/+18) in accordance with the present invention is appropriate.
# [4] = test system: expression of pOCAT (ANG N-1498/+18) in Hepa 1-6 cells; details: cited from earlier work
# [5] = test system: expression of pOGH (ANG N-1498/+18) in Hep G-TW7 cells; assay: Stimulation of expression of pOGH (ANG N-1498/+18) in stable Hep G-TW7 cells by angiotensins, IR-hGH by RIA; type: cell-based, human; details: 24 hours; for concentration giving maximal stimulation of expression of pOGH (ANG N-1498/+18): 10^-11 to 10^-5 mol/L tested
# Protocol: The method for the selection of stable hepatoma transformants with high expression of pOGH (ANG N-1498/+18) was similar to that described previously for opossum kidney cells (Wang TT et al., Kidney Int., 1994, 46:703-710). Briefly, plasmids pOGH (ANG N-1498/+18) and pRSV-Neo fusion genes were co-transfected (20 μg each) into Hep G-2 cells (1×10^6 cells) utilizing calcium phosphate-mediated endocytosis (Ming M. et al., Am. J. Hypertens., 1993, 6:141-148). After transfection, the cells were cultured overnight in 5.0 ml of DMEM containing 10% FBS. Then the medium was replaced with fresh medium containing 10% FBS and 500 μg/ml of aminoglycoside G 418 (Geneticin, Gibco Inc.). The stable transformants which were able to grow in the presence of G 418 and which secreted high levels of IR-hGH into the medium were further subcloned using the method of limiting dilution. Those cells that had passed through at least three repetitions of limiting dilution and continued to secrete high levels of IR-hGH after three months in the presence of G 418 were considered to be stable clones. One clone of human hepatoma (Hep G-TW7) with pOGH (ANG N-1498/+18) integrated into the genomes of Hep G-2 cells was obtained. The clone (Hep G-TW7) was used in accordance with the present invention.
# Hep G-TW7 cells were plated at a density of 1-2×10^5 cells/well in 6-well plates and incubated overnight in DMEM containing 1% depleted FBS (dFBS). Then cell growth was arrested by incubation in serum-free medium for 24 hours. Subsequently, various concentrations of AII (10^-11 to 10^-5 mol/L) were added to the culture medium containing 1% dFBS. At the end of the incubation period, media were collected and kept at -20° C. until assay for IR-hGH.
# Cells were incubated for up to 24 hours in the presence of various concentrations of AII. Media were harvested after 24 hours of incubation and assayed for IR-hGH. Each point represents the mean ±S.D. of at least three dishes (*p<0.05, **p<0.01 and **p<0.005).Similar results were obtained from two other experiments. It appears that maximal stimulation of expression of the pOGH (ANG N-1498/+18) was found with 10^-9 mol/L AII (p<0.01). At other concentrations of AII, it appears that the stimulatory effect of AII is minimal or inhibited.
# as §1
# Hep G-TW7 cells were plated at a density of 1-2×10^5 cells/well in 6-well plates and incubated overnight in DMEM containing 1% depleted fetal bovine serum (dFBS). […]
compound,measurement,setting,value
CGP 42112A,inhibition of the stimulatory effect of AII on expression of pOGH (ANG N-1498/+18),[1],no inhibitory effect
same,effective dose for the inhibition of the AII-stimulated expression of pOGH (ANG N-1498/+18),[2],> 10^-5 mol/L
hGH: human growth hormone,effect of hGH on expression of pOCAT (ANG N-1498/+18),[3],No significant increase
C[C@@H]1C[C@H]2[C@@H]3CCC4=CC(=O)C=C[C@]4(C)[C@@]3(F)[C@@H](O)C[C@]2(C)[C@@]1(O)C(=O)CO [dexamethasone],"effect on expression of ANG-CAT fusion genes, substance alone",[4],stimulates the expression
"angiotensin I (DRVYIHPFHL; Angiotensin-1; UniProt P01019 25-34, looked up) [AI]",concentration giving maximal stimulation of expression of pOGH (ANG N-1498/+18),[5],10^-7 mol/L
"angiotensin II (DRVYIHPF; Angiotensin-2; UniProt P01019 25-32, looked up) [AII, peptide derived from angiotensinogen; stimulus of ANG gene expression]",stimulation of the expression of the ANG-GH fusion gene as compared to the control (absence of AII),"[1]; p<0.01, 0.001 µM",1.4 fold
same,effective dose for stimulating the expression of pOGH (ANG N-1498/+18),[5],10^-9 mol/L
same,concentration giving maximal stimulation of expression of pOGH (ANG N-1498/+18),[5],10^-9 mol/L
"Nc1ncnc2c1nc(Br)n2[C@@H]1O[C@@H]2COP(=O)(O)O[C@H]2[C@H]1O [8-Br-cAMP, 8-Bromo-cAMP]",effect on the stimulatory effect of dexamethasone on expression of ANG-CAT fusion genes,[4]; added with DEX,enhanced the stimulatory effect
same,"effect on expression of ANG-CAT fusion genes, substance alone",[4],no stimulatory effect
"CC[C@H](C)[C@H](NC(=O)[C@H](Cc1ccc(O)cc1)NC(=O)[C@@H](NC(=O)[C@@H](N)CCCNC(=N)N)C(C)C)C(=O)N[C@@H](Cc1c[nH]cn1)C(=O)N1CCC[C@H]1C(=O)N[C@@H](Cc1ccccc1)C(=O)O [AIII, angiotensin III]",effective dose for stimulating the expression of pOGH (ANG N-1498/+18),[5],> 10^-5 mol/L
CCCCc1nc(Cl)c(CO)n1Cc1ccc(-c2ccccc2-c2nn[nH]n2)cc1 [Lorsatan],inhibition of the stimulatory effect of AII on expression of pOGH (ANG N-1498/+18),[1],inhibited
same,effect on the stimulatory effect of AII on expression of pOGH (ANG N-1498/+18),[2],inhibits the stimulatory effect of AII
same,minimal effective concentration,"[2]; Homo sapiens, read-out: effective dose for the inhibition of the AII-stimulated expression of pOGH (ANG N-1498/+18)",0.001 µM
CN[C@@H]1C[C@H]2O[C@@](C)([C@@H]1OC)n1c3ccccc3c3c4c(c5c6ccccc6n2c5c31)C(=O)NC4 [Staurosporine],effect on the stimulatory effect of AII on expression of pOGH (ANG N-1498/+18),[2],inhibits the stimulatory effect of AII
CNCC(=O)N[C@@H](CCCN=C(N)N)C(=O)N[C@H](C(=O)N[C@@H](Cc1ccc(O)cc1)C(=O)N[C@H](C(=O)N[C@@H](Cc1cnc[nH]1)C(=O)N1CCC[C@H]1C(=O)N[C@@H](C)C(=O)O)C(C)C)C(C)C [Saralasin],inhibition of the stimulatory effect of AII on expression of pOGH (ANG N-1498/+18),[1],inhibited
same,effective dose for the inhibition of the AII-stimulated expression of pOGH (ANG N-1498/+18),[2],10^-7 mol/L
same,effect on the stimulatory effect of AII on expression of pOGH (ANG N-1498/+18),[2],inhibits the stimulatory effect of AII
